Test results from PMC3285241 (ACS chemical neuroscience, 2011).
pIC50: −log10 of the molar value. Read-outs that look alike come from different tables or passages of the source.

Key:
[1] = target: Cav3.2 channel expressed in HEK293 cells (Homo sapiens, UniProt O95180); test: T-type calcium channel cell-based FDSS Ca2+ flux
L-type calcium channels = test: Ricerca Lead Profiling Screen, L-type calcium channel; assay type: binding; conditions: @10 μM
[2] = tested on: haloperidol-induced catalepsy in rats; test: Haloperidol-induced catalepsy; assay type: in vivo, rat; conditions: 1, 3, 10 and 30 mg/kg p.o.; haloperidol 0.75 mg/kg; comparable to A2A inhibitor 56.6 mg/kg p.o.
in vitro [3] = conditions: human, liver microsomes, pH 7.4
P450 1A2 = target: T1, P450 1A2 (Homo sapiens, UniProt P05177); test: P450 inhibition 1A2
T1 sequence (P05177 1-516): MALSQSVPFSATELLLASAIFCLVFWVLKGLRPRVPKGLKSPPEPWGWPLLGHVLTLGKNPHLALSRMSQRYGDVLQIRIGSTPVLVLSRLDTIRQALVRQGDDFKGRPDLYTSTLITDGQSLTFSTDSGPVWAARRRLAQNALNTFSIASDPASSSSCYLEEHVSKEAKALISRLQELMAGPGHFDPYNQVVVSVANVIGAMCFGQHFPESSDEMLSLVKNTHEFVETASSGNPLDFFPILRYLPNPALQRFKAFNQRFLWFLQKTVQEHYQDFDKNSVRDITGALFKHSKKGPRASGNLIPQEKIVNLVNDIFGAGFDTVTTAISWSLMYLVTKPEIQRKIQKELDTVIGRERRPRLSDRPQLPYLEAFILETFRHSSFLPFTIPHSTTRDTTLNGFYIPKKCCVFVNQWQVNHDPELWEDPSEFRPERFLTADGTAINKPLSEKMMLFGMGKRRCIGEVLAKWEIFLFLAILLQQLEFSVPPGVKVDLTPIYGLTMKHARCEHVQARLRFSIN

[4] = Intrinsic clearance in rat liver microsomes; conditions: obtained from rat liver microsomes
[5] = Brain and plasma concentrations across the catalepsy dose range; assay type: in vivo; conditions: rat
sigma 1 = sigma 1 (Homo sapiens, UniProt Q99720); test: Ricerca Lead Profiling Screen, sigma 1; assay type: binding; conditions: 10 μM
hERG = hERG (Homo sapiens, UniProt Q12809); test: Ricerca Lead Profiling Screen, hERG; assay type: binding
[6] = Plasma-brain exposure profile PK study; assay type: in vivo; conditions: male, Sprague-Dawley, rat, intraperitoneal, 10 mg/kg
sodium channel site 2 = test: Ricerca Lead Profiling Screen, sodium channel site 2; assay type: binding; conditions: 10 μM
[7] = tested on: 68 GPCRs, ion channels and transporters; test: Ricerca Lead Profiling Screen; conditions: 10 μM; significant = inhibition of radio ligand binding > 50%
P450 2D6 = P450 2D6 (Homo sapiens, UniProt P10635); test: P450 inhibition 2D6
in vitro [8] = conditions: rat, plasma, pH 7.4
in vivo = conditions: male, Sprague-Dawley, rat, plasma, iv, 1 mg/kg
[9] = tested on: T-type calcium currents in STN neurons; test: Brain slice voltage clamp, T-type calcium current in STN neurons; assay type: cell-based, rat
N-type calcium channels = N-type calcium channels (Rattus norvegicus, UniProt Q02294); test: Ricerca Lead Profiling Screen, N-type calcium channel; assay type: binding; conditions: read-out: % inhibition, N-type calcium channels
Cav3.3 = Cav3.3 (Homo sapiens, UniProt Q9P0X4); test: Cav3.3 IonWorks Quattro population patch clamp electrophysiology; assay type: cell-based
in vitro [10] = conditions: human, plasma, pH 7.4
in vitro [11] = conditions: rat, liver microsomes, pH 7.4
P450 2C9 = P450 2C9 (Homo sapiens, UniProt P11712); test: P450 inhibition 2C9
[12] = tested on: rebound burst activity in STN neurons; test: Brain slice current clamp, rebound burst activity in STN neurons; assay type: cell-based, rat
[13] = tested on: low threshold spike (LTS) in STN neurons; test: Brain slice current clamp, low threshold spike; assay type: cell-based, rat; conditions: 3 uM with 0.5 uM TTX, n = 5; control 18.1 ± 2.2 mV
[14] = no reference given; cited from earlier work
Cav3.2 = Cav3.2 (Homo sapiens, UniProt O95180); test: Cav3.2 IonWorks Quattro population patch clamp electrophysiology; assay type: cell-based; conditions: Cav3 subtype not stated
[15] = read-out: IC50 in Ca2+ fluorescence assay, Cav3.2 HEK293, full CRC

Chain of Cav3.2 channel expressed in HEK293 cells (O95180 whole entry): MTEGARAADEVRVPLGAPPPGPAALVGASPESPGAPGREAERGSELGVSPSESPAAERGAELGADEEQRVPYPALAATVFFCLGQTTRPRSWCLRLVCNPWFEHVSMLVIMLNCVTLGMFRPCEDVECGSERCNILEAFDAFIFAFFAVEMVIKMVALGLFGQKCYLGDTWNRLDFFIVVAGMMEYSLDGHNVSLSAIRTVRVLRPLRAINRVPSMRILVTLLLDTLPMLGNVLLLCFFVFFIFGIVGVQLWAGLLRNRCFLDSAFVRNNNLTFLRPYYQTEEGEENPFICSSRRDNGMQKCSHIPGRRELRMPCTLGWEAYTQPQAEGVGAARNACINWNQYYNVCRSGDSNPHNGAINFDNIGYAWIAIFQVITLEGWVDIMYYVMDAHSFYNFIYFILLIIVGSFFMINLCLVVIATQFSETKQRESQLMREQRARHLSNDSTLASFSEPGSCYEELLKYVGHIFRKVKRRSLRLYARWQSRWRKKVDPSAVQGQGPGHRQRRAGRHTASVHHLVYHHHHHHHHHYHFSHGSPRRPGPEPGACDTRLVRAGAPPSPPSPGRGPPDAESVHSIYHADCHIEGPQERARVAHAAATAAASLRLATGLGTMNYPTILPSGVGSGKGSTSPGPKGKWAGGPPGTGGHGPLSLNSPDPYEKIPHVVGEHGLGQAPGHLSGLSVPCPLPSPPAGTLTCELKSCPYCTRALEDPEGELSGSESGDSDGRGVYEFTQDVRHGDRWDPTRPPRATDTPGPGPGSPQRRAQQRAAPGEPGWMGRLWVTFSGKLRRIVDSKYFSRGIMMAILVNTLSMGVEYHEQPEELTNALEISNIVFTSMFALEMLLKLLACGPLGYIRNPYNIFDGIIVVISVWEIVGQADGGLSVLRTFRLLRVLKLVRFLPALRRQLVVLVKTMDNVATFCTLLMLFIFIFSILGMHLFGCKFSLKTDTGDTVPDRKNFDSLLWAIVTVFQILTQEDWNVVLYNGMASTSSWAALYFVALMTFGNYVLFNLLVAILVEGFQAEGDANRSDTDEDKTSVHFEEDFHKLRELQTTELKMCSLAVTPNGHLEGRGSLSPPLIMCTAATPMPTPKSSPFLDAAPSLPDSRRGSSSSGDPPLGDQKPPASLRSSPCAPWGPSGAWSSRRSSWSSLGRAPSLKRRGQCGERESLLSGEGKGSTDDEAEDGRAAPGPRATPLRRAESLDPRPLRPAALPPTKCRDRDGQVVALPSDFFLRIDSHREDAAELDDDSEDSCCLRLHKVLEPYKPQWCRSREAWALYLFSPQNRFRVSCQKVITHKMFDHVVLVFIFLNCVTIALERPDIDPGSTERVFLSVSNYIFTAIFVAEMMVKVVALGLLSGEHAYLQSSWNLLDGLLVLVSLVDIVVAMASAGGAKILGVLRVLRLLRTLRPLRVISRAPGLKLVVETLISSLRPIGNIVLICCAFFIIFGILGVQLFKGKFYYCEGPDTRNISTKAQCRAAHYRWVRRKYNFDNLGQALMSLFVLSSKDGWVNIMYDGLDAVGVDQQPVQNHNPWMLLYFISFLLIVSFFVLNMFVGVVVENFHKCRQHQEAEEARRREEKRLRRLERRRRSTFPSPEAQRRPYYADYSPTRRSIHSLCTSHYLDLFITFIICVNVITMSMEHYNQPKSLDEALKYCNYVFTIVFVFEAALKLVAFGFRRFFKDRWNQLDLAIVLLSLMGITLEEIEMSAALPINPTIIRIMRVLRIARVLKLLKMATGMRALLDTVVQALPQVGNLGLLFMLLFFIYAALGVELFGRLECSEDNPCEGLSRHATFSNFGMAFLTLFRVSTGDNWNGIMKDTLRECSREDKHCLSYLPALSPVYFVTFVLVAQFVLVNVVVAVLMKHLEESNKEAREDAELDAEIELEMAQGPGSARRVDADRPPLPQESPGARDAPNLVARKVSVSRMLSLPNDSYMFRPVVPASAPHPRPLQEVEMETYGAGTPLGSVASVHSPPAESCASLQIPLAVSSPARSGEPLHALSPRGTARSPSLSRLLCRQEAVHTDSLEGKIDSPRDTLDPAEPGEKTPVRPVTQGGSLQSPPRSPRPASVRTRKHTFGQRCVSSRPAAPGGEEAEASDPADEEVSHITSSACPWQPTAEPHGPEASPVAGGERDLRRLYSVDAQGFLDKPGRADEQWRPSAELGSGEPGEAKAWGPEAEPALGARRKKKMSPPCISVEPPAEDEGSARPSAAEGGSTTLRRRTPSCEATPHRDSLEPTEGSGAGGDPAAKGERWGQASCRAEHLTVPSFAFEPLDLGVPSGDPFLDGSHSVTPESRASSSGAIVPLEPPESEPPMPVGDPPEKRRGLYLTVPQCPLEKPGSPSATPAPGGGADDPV
Chain of sigma 1 (Q99720 whole entry): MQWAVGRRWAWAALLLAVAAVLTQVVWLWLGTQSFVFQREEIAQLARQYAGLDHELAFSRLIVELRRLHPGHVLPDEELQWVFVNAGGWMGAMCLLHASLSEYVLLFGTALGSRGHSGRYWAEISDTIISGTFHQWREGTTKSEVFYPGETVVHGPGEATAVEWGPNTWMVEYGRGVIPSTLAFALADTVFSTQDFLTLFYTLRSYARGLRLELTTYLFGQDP
Chain of P450 2C9 (P11712 whole entry): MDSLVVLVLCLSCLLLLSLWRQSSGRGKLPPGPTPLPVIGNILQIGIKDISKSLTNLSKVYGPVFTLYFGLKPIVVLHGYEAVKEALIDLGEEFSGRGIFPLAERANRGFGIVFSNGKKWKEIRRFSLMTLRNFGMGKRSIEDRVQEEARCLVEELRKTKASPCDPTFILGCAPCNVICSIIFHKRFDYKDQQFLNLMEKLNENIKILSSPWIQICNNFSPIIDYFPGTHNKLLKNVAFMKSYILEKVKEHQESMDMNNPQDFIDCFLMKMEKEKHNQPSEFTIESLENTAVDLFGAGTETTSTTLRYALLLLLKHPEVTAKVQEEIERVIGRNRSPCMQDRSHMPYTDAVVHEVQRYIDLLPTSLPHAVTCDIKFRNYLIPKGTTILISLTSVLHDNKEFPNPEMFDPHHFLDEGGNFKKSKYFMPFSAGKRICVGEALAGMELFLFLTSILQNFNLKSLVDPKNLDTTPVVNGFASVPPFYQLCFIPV
Chain of P450 2D6 (P10635 whole entry): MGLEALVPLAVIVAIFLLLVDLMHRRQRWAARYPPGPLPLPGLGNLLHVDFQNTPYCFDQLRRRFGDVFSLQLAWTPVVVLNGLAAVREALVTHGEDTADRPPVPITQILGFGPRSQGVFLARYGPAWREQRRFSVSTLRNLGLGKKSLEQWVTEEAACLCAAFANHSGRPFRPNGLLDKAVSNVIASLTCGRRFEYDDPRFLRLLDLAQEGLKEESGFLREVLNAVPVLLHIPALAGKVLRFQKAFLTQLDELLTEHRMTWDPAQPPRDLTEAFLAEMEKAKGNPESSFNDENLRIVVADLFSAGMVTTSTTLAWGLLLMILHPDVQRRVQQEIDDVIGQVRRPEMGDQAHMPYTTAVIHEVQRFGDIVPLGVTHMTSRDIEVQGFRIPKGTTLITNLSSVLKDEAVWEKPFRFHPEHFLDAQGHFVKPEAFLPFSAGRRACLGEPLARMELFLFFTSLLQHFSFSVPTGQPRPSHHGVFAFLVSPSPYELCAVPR
Chain of hERG (Q12809 whole entry): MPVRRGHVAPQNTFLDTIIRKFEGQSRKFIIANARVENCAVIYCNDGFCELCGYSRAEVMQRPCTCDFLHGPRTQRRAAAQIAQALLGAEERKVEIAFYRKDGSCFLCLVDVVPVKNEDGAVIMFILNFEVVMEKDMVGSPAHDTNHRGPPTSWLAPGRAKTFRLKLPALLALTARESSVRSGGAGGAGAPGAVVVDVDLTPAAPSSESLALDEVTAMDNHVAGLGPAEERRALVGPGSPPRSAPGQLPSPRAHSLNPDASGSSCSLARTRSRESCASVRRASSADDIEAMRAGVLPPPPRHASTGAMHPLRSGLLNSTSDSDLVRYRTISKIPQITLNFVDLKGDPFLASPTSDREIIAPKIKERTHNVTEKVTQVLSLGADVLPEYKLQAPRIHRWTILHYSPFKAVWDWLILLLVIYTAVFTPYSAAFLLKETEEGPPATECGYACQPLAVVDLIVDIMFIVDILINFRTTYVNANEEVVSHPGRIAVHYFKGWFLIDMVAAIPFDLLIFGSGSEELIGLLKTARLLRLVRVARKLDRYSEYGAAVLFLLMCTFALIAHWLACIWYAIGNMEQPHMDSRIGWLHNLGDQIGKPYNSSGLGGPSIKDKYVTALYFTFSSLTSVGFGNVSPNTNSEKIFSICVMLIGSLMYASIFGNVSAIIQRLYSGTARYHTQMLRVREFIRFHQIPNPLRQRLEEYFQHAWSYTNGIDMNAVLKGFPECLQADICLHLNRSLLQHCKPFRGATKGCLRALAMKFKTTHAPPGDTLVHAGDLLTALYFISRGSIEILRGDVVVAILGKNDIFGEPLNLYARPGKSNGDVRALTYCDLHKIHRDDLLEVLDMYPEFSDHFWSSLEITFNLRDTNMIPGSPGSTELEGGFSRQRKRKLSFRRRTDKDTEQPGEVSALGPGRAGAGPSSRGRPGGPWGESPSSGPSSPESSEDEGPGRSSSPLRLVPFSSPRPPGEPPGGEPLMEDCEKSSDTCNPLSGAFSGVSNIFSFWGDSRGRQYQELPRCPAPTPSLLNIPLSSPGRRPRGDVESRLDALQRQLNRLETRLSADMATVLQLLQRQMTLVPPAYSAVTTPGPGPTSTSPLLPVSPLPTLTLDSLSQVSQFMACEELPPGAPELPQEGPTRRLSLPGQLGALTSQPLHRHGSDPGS
Chain of Cav3.2 (O95180 whole entry): as the sequence (O95180 whole entry) above

CC(C)(C)CCN1CCC[C@@H](NC(=O)COc2ccc(F)cc2Cl)C1 [CID45115614]
T-type Ca2+ channel inhibition, result in words ([1]; 3-amino piperidine library): devoid of activity

CC(C)(C)CCN1CC2C(CNC(=O)c3cc(Cl)cc(Cl)c3)C2C1 (stereo not shown) [ML218, 3,5-dichloro-N-((3-(3,3-dimethylbutyl)-3-azabicyclo[3.1.0]hexan-6-yl)methyl)benzamide]
% inhibition, L-type calcium channels (L-type calcium channels): 17% | Reversal of haloperidol-induced catalepsy [2]: reversed cataleptic behavior | CLint scaled at 1 μM (in vitro [3]): 12.7 mL/min/kg | pIC50 (P450 1A2): 4.97 | predicted hepatic clearance CLHEP [4]: 43 mL/min/kg | [brain] ([5]; 3 mg/kg p.o.): 1.66 µM | [plasma] ([5]; 3 mg/kg p.o.): 98 nM | [brain] ([5]; 10 mg/kg p.o.): 5.03 µM | [plasma] ([5]; 10 mg/kg p.o.): 282 nM | [brain] ([5]; 30 mg/kg p.o.): 17.7 µM | [plasma] ([5]; 30 mg/kg p.o.): 1200 nM | Binding to sigma 1 (sigma 1): significantly bind | inhibition at 10 µM (hERG): 48% | Kp [6]: 7.4 | Binding to sodium channel site 2 (sodium channel site 2): significantly bind | Number of targets significantly bound in 68-assay panel [7]: only significantly bind two targets | pIC50 [1]: 6.82 | pIC50 (P450 2D6): 5.77 | fraction unbound at 4 h (in vitro [8]): 0.091 | MRT (in vivo): ~7 h | clearance (in vivo): 56 mL/min/kg | half-life (in vivo): 7 h | T-currents, % of the control value ([9]; 3 uM, n = 7): 45.1 ± 5.1% | Reduction of T-type Ca2+ current ([9]; 3 μM, voltage clamp, bath application): ~ 45% | inhibition at 10 µM (N-type calcium channels): 49% | pIC50 (Cav3.3): 6.56 | fraction unbound at 4 h (in vitro [10]): 0.033 | CLint scaled at 1 μM (in vitro [11]): 115 mL/min/kg | pIC50 (P450 2C9): < 4.52 | Depression of rebound burst activity ([12]; 3 μM, -100 pA followed by depolarizing current): > 60% | Number of rebound spikes ([12]; 3 uM, n = 6, control 16.0 ± 2.8 spikes/burst): 5.7 ± 0.5 spikes/burst | Amplitude of LTS [13]: 8.7 ± 2.1 mV

COCC(=O)O[C@]1(CCN(C)CCCc2nc3ccccc3[nH]2)CCc2cc(F)ccc2[C@@H]1C(C)C [compound 3, mibefradil]
Penetration into CNS [14]: poor penetration into CNS

CC(C)(C)Cc1nnc(NC(=O)COc2ccc(Cl)cc2Cl)o1 [compound 18]
Potency in patch EP relative to Ca2+ fluorescence, in words (Cav3.2): significant right-shift in potency | pIC50 [1, 15]: 6.09

CC(C)(C)CCN1CCC[C@H](NC(=O)COc2ccc(F)cc2Cl)C1 [compound 23]
pIC50 [1, 15]: 5.62
